Consider four compounds from patent publication EP0657160A1, “Oral composition for desensitising sensitive teeth” (UNILEVER N.V., priority 1993, dated 1995).

pIC50: −log10 of the molar value. Where a name gives a salt, the structure may show the parent alone. Read-outs that look alike come from different tables or passages of the source.

In the assay the test system is spinal nerve roots of the cauda equina. In words: Compound nerve action potentials (CAPs) recorded in vitro from isolated spinal nerve roots. Details: species or system rats. The conditions noted are these: for pIC50: K+ concentration read from the dose-response curves, read-out: 50% reduction of the CAP. The protocol: Using the method as described in J. Physiol 275, (1978), pages 177-189, experiments were carried out in vitro on spinal nerve roots of the cauda equina dissected from killed rats. Compound nerve action potentials (CAPs) were recorded from the nerves which were placed in a bath incorporating stimulating and recording electrodes and analyzed with MacLab Scope. Kreb's solutions containing various potassium ion concentrations were applied for 5 minutes to an isolated central portion of the nerve between the two sets of electrodes. With all potassium salts tested, the amplitude and area of the CAPs were reduced in a dose-dependent manner by test solutions containing 8 mM K⁺ or more. "Mean INT" in the table is the mean integrated CAP, expressed as a percentage of the control response, i.e. the response obtained with Krebs' solution containing 4mM K⁺. There were no differences in the results for CAP peak amplitudes and integrated CAPs.
Wilcoxons' Sum of Ranks test was used to compare the % of control I-CAP values obtained after 5 min exposure to the different K⁺ salts at equivalent concentrations.

The mark [1] stands for this setting: [K+] 8 mM, applied for 5 minutes, mean integrated CAP as percentage of control response (Krebs' solution containing 4mM K+).
The mark [2] stands for this setting: [K+] 16 mM, applied for 5 minutes, mean integrated CAP as percentage of control response (Krebs' solution containing 4mM K+).
Setting [3] is: [K+] 24 mM, applied for 5 minutes, mean integrated CAP as percentage of control response (Krebs' solution containing 4mM K+).
Where [4] appears, read: [K+] 32 mM, applied for 5 minutes, mean integrated CAP as percentage of control response (Krebs' solution containing 4mM K+).
[5] abbreviates: [K+] 64 mM, applied for 5 minutes, mean integrated CAP as percentage of control response (Krebs' solution containing 4mM K+).

With `O=[N+]([O-])[O-].[K+]` [KNO₃, potassium nitrate], the pIC50 was 1.76. The “mean INT.(%)” value under setting [1] came to 91%. Also, the “mean INT.(%)” value under setting [2] turned out to be 54%. Besides, under setting [3], the “mean INT.(%)” value was determined as 17%. The “mean INT.(%)” value under setting [4] came out at 2%. Also, under setting [5], the “mean INT.(%)” value was found to be 0%.

On to `[Cl-].[K+]` [KCl, potassium chloride], for which the pIC50 is 1.75. Also, the “mean INT.(%)” value under setting [1] was determined as 98%. Besides, the “mean INT.(%)” value under setting [2] worked out at 59%. Besides, the “mean INT.(%)” value under setting [3] is 13%. Also, under setting [4], the “mean INT.(%)” value is given as 1%. For the same compound, the “mean INT.(%)” value under setting [5] worked out at 0%.

Take potassium oxalate [K₂Oxalate]: the pIC50 was 1.84. Moreover, the “mean INT.(%)” value under setting [1] amounted to 84%. Under setting [2], the “mean INT.(%)” value is listed as 42%. For the same compound, the “mean INT.(%)” value under setting [3] was found to be 11%. Besides, under setting [4], the “mean INT.(%)” value turned out to be 3%. Besides, the “mean INT.(%)” value under setting [5] worked out at 1%.

With `O=C(O)C(O)C(O)C(=O)O` (stereo not shown) [K₂Tartrate, dipotassium tartrate], under “16-64 mM K+, p < 0.05”, the “effect on CAP compared with potassium oxalate” value is reported as “significantly greater”. Moreover, under “Rattus norvegicus, 5 min, [K+] 8 mM, applied for 5 minutes, mean integrated CAP as percentage of control response (Krebs' solution containing 4mM K+), read-out: mean INT.(%)”, the activity at 8000 µM stood at 83%. For the same compound, the activity at 16000 µM (Rattus norvegicus, 5 min, [K+] 16 mM, applied for 5 minutes, mean integrated CAP as percentage of control response (Krebs' solution containing 4mM K+), read-out: mean INT.(%)) worked out at 15%. In addition, the activity at 24000 µM (Rattus norvegicus, 5 min, [K+] 24 mM, applied for 5 minutes, mean integrated CAP as percentage of control response (Krebs' solution containing 4mM K+), read-out: mean INT.(%)) is 2%. Also, the activity at 32000 µM (Rattus norvegicus, 5 min, [K+] 32 mM, applied for 5 minutes, mean integrated CAP as percentage of control response (Krebs' solution containing 4mM K+), read-out: mean INT.(%)) stood at 1%. Further, where the note is “Rattus norvegicus, 5 min, [K+] 64 mM, applied for 5 minutes, mean integrated CAP as percentage of control response (Krebs' solution containing 4mM K+), read-out: mean INT.(%)”, the activity at 64000 µM stood at 1%. Under “Rattus norvegicus”, the pIC50 is 1.94.
